Test results taken from patent US7129334B2, “Synthetic peptide and uses for same” (priority 2001, dated 2006).
Where no end group is shown, it is not given here.

Tests used:
PC12 cells = test: Neurite growth on PC12 cells; type: cell-based
Description: Biological Activity of Fragments on PC12 cells: The trypsin digested fragments in various concentrations were tested for neurite growth on PC12 cells. Tissue culture plates having 24 wells were seeded with 10^5 PC12 cells in serum free Dulbeco Modified Eagle's medium (DMEM). The results were read after 96 hours for neurite outgrowth.

[1] = Mitogenic activity of synthetic constructs (deletion series); type: cell-based; settings: constructs of 5 to 21 amino acids compared
Excerpt: Several synthetic constructs were made based on portions of this sequence by deleting one amino acid from one terminal at a time. In this manner, several constructs consisting of 5 to 21 amino acids were made and tested for mitogenic activity. […] […] This peptide is designated hereinafter as Oxynor peptide -10.

Anti-β-taipoxin = test: Immunological reaction with anti-β-taipoxin; type: binding, mice
Excerpt: This proves that Oxynor peptide-10 is an integral part of the natural β-taipoxin.

[2] = tested on: 6 mm ischemic skin wounds; test: 6 mm ischemic skin wounds in rat; type: in vivo; settings: 100 μg/ml in hydrogel vehicle once daily; days 7 and 10
Description: Natural β-taipoxin and Oxynor peptide-10 were tested against each other in vivo at a concentration of 100 μg/ml in hydrogel vehicle applied once daily to help heal 6 mm ischemic skin wounds in rat. At days 7 and 10 the wounds treated with Oxynor peptide-10 were about 15% smaller in area than the wounds treated with natural β-taipoxin.

4 mm punched wounds = 4 mm punched wounds on the back of mice; type: in vivo
Description: Experimentally produced 4 mm punched wounds on the back of mice were treated with β taipoxin to compare with Oxynor peptide-10 treatment.

Row | Substance | neurite growth on PC12 cells (PC12 cells; similar concentrations (2 to 5) in serum-free medium) | mitogenic activity [1] | immunological reaction with anti-β-taipoxin made in mice (Anti-β-taipoxin) | wound area smaller than wounds treated with natural β-taipoxin [2] | closure of wounds (4 mm punched wounds; after six days, PBS controls open) | histological examination of the skin around the wounds (4 mm punched wounds; mice, treated wounds) | neurite growth of trypsin digest fragments (PC12 cells; 10^5 PC12 cells, serum free DMEM, read after 96 hours)
1 | SLLNFANLIE [Oxynor peptide-10] | produced neurite growth | most active | reacted immunologically | about 15% | complete closure of the wounds | epidermis almost like normal skin | 
2 | KGGSLLNFANLIENDVPIDHM [Oxynor peptide-21] |  |  |  |  |  |  | most neurite growth at the lowest concentration
3 | Ser Leu Leu Asn Phe (SLLNF; SYNTHESIZED. CORRESPONDS TO POSITIONS 4-8 ABOVE.) [Oxynor peptide-5] |  | active, but less active |  |  |  |  | 
